SMILES strings stand for the structures.

The test system of the first data set is TNF-α. The experiment in a line: Synthesis of TNF-α induced in Balb/c mice by LPS from Escherichia coli. It is filed as in vivo. Conditions: female Balb/c mice, oral administration; LPS i.v. 10 μg/mouse one hour later; plasma TNF-α 1.5 hours after LPS. How it is done:
The test products are administered orally to groups of five 7- to 8-week-old female Balb/c mice (Charles River, France). One hour later, LPS is administered intravenously (10 μg/mouse). The blood of each animal is collected 1.5 hours after the LPS administration. The samples are centrifuged, and the plasma is recovered and frozen at −80° C. The TNF-α is measured using commercial kits (R & D, Abingdon, UK).
As to `CCCCCc1cc(CCN2CCN(c3cccc(C(F)(F)F)c3)CC2)ccc1C.O=C(O)CCC(=O)O` [compound 38, 1-(3-trifluoromethylphenyl)-4-[2-(4-methyl-3-pentyl-phenyl)ethyl]piperazine succinate], the “IC50, inhibiting the synthesis of TNF-α” value turned out to be 0.1 mg/kg.

The next data set has as its system TNF-α. The experiment in a line: Synthesis of TNF-α induced in Sprague-Dawley rats by LPS from Escherichia coli. It is filed as in vivo. The conditions noted are these: male Sprague-Dawley rats, oral administration; LPS i.v. 0.1 mg/Kg two hours later; serum TNF-α 1.5 hours after LPS. The method, then: The test products are administered orally to groups of ten male Sprague-Dawley rats weighing about 200 grams. Two hours later, LPS is administered intravenously (0.1 mg/Kg). The blood of each animal is collected 1.5 hours after the LPS administration. The samples are centrifuged, and the serum is recovered and frozen at −80° C. The TNF-α is measured using commercial kits (RPN 2744 Amersham, UK).
In the case of `CCCCCc1cc(CCN2CCN(c3cccc(C(F)(F)F)c3)CC2)ccc1C.CCCCCc1cc(CCN2CCN(c3cccc(C(F)(F)F)c3)CC2)ccc1C.O=C(O)c1cc2ccccc2c(Cc2c(O)c(C(=O)O)cc3ccccc23)c1O` [compound 1, 1-(3-trifluoromethylphenyl)-4-[2-(4-methyl-3-pentylphenyl)ethyl]piperazine hemipamoate], the “IC50, inhibiting the synthesis of TNF-α” value is 0.3 mg/kg.
Still for that read-out and setting: the figure for `CCCCCc1cc(CCN2CCN(c3cccc(F)c3)CC2)ccc1C.Cl` [compound 4, 1-(3-fluorophenyl)-4-[2-(4-methyl-3-pentylphenyl)ethyl]-piperazine hydrochloride] is 1 mg/kg; for `CCCCCc1cc(CCN2CCN(c3cccc(C(F)F)c3)CC2)ccc1C.Cl` [compound 8, 1-(3-difluoromethylphenyl)-4-[2-(4-methyl-3-pentylphenyl)-ethyl]piperazine hydrochloride] it is 1 mg/kg.

For the next data set, the system named is Zymosan-induced knee joint inflammation / hyperalgesia. The experiment in a line: Model of joint inflammation: Zymosan-induced knee joint inflammation, secondary hyperalgesia (plantar test). It is filed as in vivo. Conditions: male hamster, 1 ng/joint injected into the joint one hour before first Zymosan injection; 3 Zymosan injections; measured from 4 hours and during following 3 weeks. The method, then: The compounds of the invention are tested in a model of joint inflammation.
The compound (1 ng/joint as a suspension in 10 μL of a solution of 2% PVP (polyvinylpyrrolidone)/1% lutrol F68/0.9% NaCl) according to the invention is injected one hour before the first injection of Zymosan® (see below) into the joint of a hamster.
Induction of a knee joint inflammation: Under light anaesthesia using isofluran, a suspension of Zymosan® at a dose of 100 μg in 10 μL of saline solution is injected into the knee joint of a male hamster. Zymosan® is a yeast extract which produces a strong dose-dependent inflammation when subcutaneously injected. Under the experimental conditions described herein (injection into the knee joint), it induces a hyperalgesia lasting for a week. In order to extend this period, 3 consecutive injections of Zymosan® were applied. The lag time to paw withdrawal, following exposure of the plantar skin to a defined heat stimulus, is measured using apparatus (Plantar Test Ugo Basile Biological Research Apparatus, Comerio, Italy) comprising a mini-camera to ensure the correct positioning of the infrared ray below the hind leg of interest.
Measurement of Secondary Hyperalgesia:
The timer, which measures the length of time the infrared light is reflected by the hind leg, is started by the investigator and stops automatically as soon as the animal shakes or pulls away its leg. […]
For `CCCCCc1cc(CCN2CCN(c3cccc(C(F)(F)F)c3)CC2)ccc1C.CCCCCc1cc(CCN2CCN(c3cccc(C(F)(F)F)c3)CC2)ccc1C.O=C(O)c1cc2ccccc2c(Cc2c(O)c(C(=O)O)cc3ccccc23)c1O` [compound 1, 1-(3-trifluoromethylphenyl)-4-[2-(4-methyl-3-pentylphenyl)ethyl]piperazine hemipamoate], the “reduction of pain (lag time to leg withdrawal, secondary hyperalgesia)” value is on record as “effective reduction of pain over a 3-week period”.

A further data set has as its system tactile allodynia after spare nerve injury. The data set can be described thus: Model of neuropathic pain: anti-allodynic effect in the spare nerve injury (SNI), von Frey test. Format: in vivo. The conditions noted are these: male C57B6 mice, 7 days after surgery, 1 mg/kg i.v., from 1 h to 6 h after administration. The method, then: The compounds of the invention are also tested in a model of neuropathic pain: measurement of the anti-allodynic effect in the spare nerve injury (SNI).
In this in vivo model of mice suffering from chronic neuropathic pain, the effect on tactile allodynia, a painful sensation induced after a mechanical stimulus not normally painful, is triggered in the hind leg by surgical lesion of the great sciatic nerve. It is then determined by measuring the paw withdrawal threshold (PWT), i.e. the applied force (expressed in grams) at which the mouse withdraws its hind leg.
Tactile allodynia is determined on both hind legs, i.e. homolaterally and controlaterally to the lesion determined following surgery, with the automatic von Frey test, in which the plantar skin of the hind legs is exposed to a pressure stimulus of increasing intensity reaching 5 grams, using a discharge needle prod. […]
Trial groups using the compounds according to the invention and a control group of animals were used, each being composed of four male C57B6 mice. In each group, the baseline of the PWT values (BL) was determined before surgery. […]
7 days after surgery, just before the administration of the compound, i.e. at 0 h, and in all the groups, the PWT values were determined for the homolateral hind leg (injured) and the controlateral hind leg (non-injured). […]
`CCCCCc1cc(CCN2CCN(c3cccc(C(F)(F)F)c3)CC2)ccc1C.CCCCCc1cc(CCN2CCN(c3cccc(C(F)(F)F)c3)CC2)ccc1C.O=C(O)c1cc2ccccc2c(Cc2c(O)c(C(=O)O)cc3ccccc23)c1O` [compound 1, 1-(3-trifluoromethylphenyl)-4-[2-(4-methyl-3-pentylphenyl)ethyl]piperazine hemipamoate]: the “reduction of pain (anti-allodynic effect, paw withdrawal threshold PWT)” value is reported as “statistically significant reduction of pain”.

Tested on in the next data set: not given
Assay: not given
Conditions: not given
One may read the melting point as the temperature, or range, at which the solid turns liquid. Regarding `CCCCCc1cc(CCN2CCN(c3cccc(OC)c3)CC2)ccc1C.Cl`, the melting point fell in the range of 199 to 201 °C.
Molecule `CCCCCc1cc(CCN2CCN(c3cccc(C(F)F)c3)CC2)ccc1OC.Cl` returned a melting point of 125 to 128 °C.
Still for that read-out and setting: the figure for `CCCCCCCc1cc(CCN2CCN(c3cccc(C(F)(F)F)c3)CC2)ccc1OC.Cl` is 214 °C; for `CCCCCCc1cc(CCN2CCN(c3cccc(C(F)(F)F)c3)CC2)ccc1C.Cl` it is 187 °C; for `CCCc1cc(CCN2CCN(c3cccc(C(F)(F)F)c3)CC2)ccc1OC.Cl` it is 184 to 185 °C.
Still for that read-out and setting: the figure for `CCCCCc1cc(CCN2CCN(c3ccc(Cl)cc3)CC2)ccc1C.Cl` is 203 °C.
Same read-out and setting: the figure for `CCCCCc1cc(CCN2CCN(c3cccc(C(F)(F)F)c3)CC2)ccc1OC.Cl` is 146 to 149 °C; for `CCCCCc1cc(CCN2CCN(c3ccc(F)cc3)CC2)ccc1C.Cl.Cl` it is over 201 °C; for `CCCCCc1cc(CCN2CCN(c3ccc(Br)cn3)CC2)ccc1C.Cl.Cl` it is 190 to 192 °C.
For `CCCCCc1cc(CCN2CCN(c3ccc(C(F)(F)F)cn3)CC2)ccc1C.Cl.Cl`, the melting point is over 212 °C.
The same measure, in the same setting: as for `CCCCCc1cc(CCN2CCN(c3ccc(C(C)(C)C)cc3)CC2)ccc1C.Cl`, the figure is 193 to 195 °C; as for `CCCCCc1cc(CCN2CCN(c3ccc(OCC)cc3)CC2)ccc1C.Cl.Cl`, 228 to 230 °C.
Same read-out and setting: as for `CCCCCc1cc(CCN2CCN(c3cccc(C)c3)CC2)ccc1C.Cl.Cl`, the figure is 226 to 228 °C.
In turn, `CCCc1cc(CCN2CCN(c3cccc(C(F)(F)F)c3)CC2)ccc1C.Cl` came in with a melting point of 198 to 200 °C.
Still for that read-out and setting: as for `CCCCCc1cc(CCN2CCN(c3ccccn3)CC2)ccc1C.Cl.Cl`, the figure is 183 to 185 °C; as for `CCCCCc1cc(CCN2CCN(c3cccc(Br)n3)CC2)ccc1C.Cl`, 185 to 187 °C.
Molecule `CCCCCc1cc(CCN2CCN(c3ccccc3Cl)CC2)ccc1C.Cl` returned a melting point of 200 to 202 °C.
`CCCCCc1cc(CCN2CCN(c3ccccc3C)CC2)ccc1C.Cl`: the melting point fell in the range of 220 to 222 °C.
Molecule `CCCCCc1cc(CCN2CCN(c3cccc(OC(F)(F)F)c3)CC2)ccc1C.Cl` displayed a melting point of 197 to 200 °C.
Regarding `CCCCCc1cc(CCN2CCN(c3ccc(Cl)cn3)CC2)ccc1C.Cl`, the melting point is 199 to 201 °C.
Same read-out and setting: as for `CCCCCCCc1cc(CCN2CCN(c3cccc(C(F)(F)F)c3)CC2)ccc1C.Cl`, the figure is 190 to 192 °C.
Still for that read-out and setting: as for `CCCCCc1cc(CCN2CCN(c3cccc(C(F)(F)F)n3)CC2)ccc1C.Cl`, the figure is 161 to 163 °C; as for `CCCCCc1cc(CCN2CCN(c3cccc(F)c3)CC2)ccc1OC.Cl`, 174 to 177 °C; as for `CCCCCc1cc(CCN2CCN(c3ccccc3)CC2)ccc1C.Cl`, 200 to 202 °C.
In the case of `CCCCCc1cc(CCN2CCN(c3cccc(F)c3)CC2)ccc1C.Cl` [compound 4, 1-(3-fluorophenyl)-4-[2-(4-methyl-3-pentylphenyl)ethyl]-piperazine hydrochloride], the melting point is 215 to 217 °C.
Same read-out and setting: the figure for `CCCCCc1cc(CCN2CCN(c3cccc(C(F)F)c3)CC2)ccc1C.Cl` [compound 8, 1-(3-difluoromethylphenyl)-4-[2-(4-methyl-3-pentylphenyl)-ethyl]piperazine hydrochloride] is 182 to 185 °C.

Values taken from patent US8153637B2, “Phenyl-alkyl piperazines having TNF-modulating activity, preparation method, and therapeutic use thereof” (Sanofi, priority 2008, dated 2012).
